Experimental data published in patent publication US9718790B2, “Triazine derivative and pharmaceutical composition having an analgesic activity comprising the same” (SHIONOGI & CO., LTD., priority 2010, dated 2017).

What follows are compounds tested against human P2X3 receptor (Homo sapiens (Human), UniProt P56373) (assay: Evaluation of human P2X3 receptor inhibitory activity (Fluo-3 calcium fluorescence, FDSS 3000, ATP stimulation)). Conditions: C6BU-1 cells stably expressing human P2X3 receptor.
human P2X3 receptor, sequence (P56373 whole entry): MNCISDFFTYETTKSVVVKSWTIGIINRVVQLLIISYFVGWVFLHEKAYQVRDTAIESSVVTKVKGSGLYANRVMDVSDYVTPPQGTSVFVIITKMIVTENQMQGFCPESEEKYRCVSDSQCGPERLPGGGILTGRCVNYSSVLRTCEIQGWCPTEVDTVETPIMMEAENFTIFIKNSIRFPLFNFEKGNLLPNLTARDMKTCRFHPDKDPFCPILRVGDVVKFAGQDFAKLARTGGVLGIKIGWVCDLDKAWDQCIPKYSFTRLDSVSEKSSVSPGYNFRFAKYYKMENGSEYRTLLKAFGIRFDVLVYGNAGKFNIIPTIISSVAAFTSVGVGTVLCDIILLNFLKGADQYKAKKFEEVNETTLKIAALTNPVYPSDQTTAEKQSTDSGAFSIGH
Type: cell-based
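Also: stimulus was 50 nM ATP with fluorescence followed for 3 min, and the response per well was peak post-ATP fluorescence divided by the reading at measurement start.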

Compound | IC50 [µM]
Cc1ccc(Cn2c(=O)n(C[C@H](C)C(=O)O)c(=O)[nH]/c2=N\c2cnc(Oc3ccccc3)c(Cl)c2)cc1 [Compound I-1476] | 0.262
Cc1ccc(Cn2c(=O)n(C[C@H](C)C(=O)O)c(=O)[nH]/c2=N\c2cnc(OC3CCCC3)c(Cl)c2)cc1 [Compound I-1477] | 0.068
COC(=O)[C@@H](C)Cn1c(=O)[nH]/c(=N\c2cnc(OC3CCC3)c(C)c2)n(Cc2ccc(C)cc2)c1=O [Compound I-1478] | 0.019

Same assay, conditions: human P2X3 receptor, Test Example 1

Compound | IC50 [µM]
COC(=O)[C@@H](C)Cn1c(=O)[nH]/c(=N\c2cnc(OC3CCC3)c(C)c2)n(Cc2ccc(Cl)cc2)c1=O [Compound I-1479] | 0.02
COC(=O)C1(Cn2c(=O)[nH]/c(=N\c3ccc(OC(C)C)c(C)c3)n(Cc3ccc(Cl)cc3)c2=O)COC1 [Compound I-1480] | 0.002
Cc1cc(/N=c2\[nH]c(=O)n(CC3(C(=O)O)COC3)c(=O)n2Cc2ccc(Cl)cc2)ccc1OC(C)C [Compound I-1481] | 0.039
Cc1ccc(Cn2c(=O)n(C[C@H](C)C(=O)O)c(=O)[nH]/c2=N\c2cnc(OC3CCC3)c(C)c2)cc1 [Compound I-1482] | 0.098
Cc1cc(/N=c2\[nH]c(=O)n(C[C@H](C)C(=O)O)c(=O)n2Cc2ccc(Cl)cc2)cnc1OC1CCC1 [Compound I-1483] | 0.087
COC(=O)[C@H](C)Cn1c(=O)[nH]/c(=N\c2ccc(N3CCCCC3)cc2)n(Cc2ccc(Cl)cc2)c1=O [Compound I-1484] | 0.006
Cc1ccc(Cn2c(=O)n(C[C@H](C)C(=O)O)c(=O)[nH]/c2=N\c2ccc(CC(C)C)c(Cl)c2)cn1 [Compound I-1485] | 0.235
C[C@H](Cn1c(=O)[nH]/c(=N\c2ccc(N3CCCCC3)cc2)n(Cc2ccc(Cl)cc2)c1=O)C(=O)O [Compound I-1486] | 0.043
COC(=O)[C@@H](C)Cn1c(=O)[nH]/c(=N\c2ccc(C3CC3)c(Cl)c2)n(Cc2ccc(C)cc2)c1=O [Compound I-1487] | 0.106
COC(=O)[C@@H](C)Cn1c(=O)[nH]/c(=N\c2ccc(C3CC3)c(C3CC3)c2)n(Cc2ccc(C)cc2)c1=O [Compound I-1488] | 0.652
Cc1ccc(Cn2c(=O)n(C[C@H](C)C(=O)O)c(=O)[nH]/c2=N\c2ccc(C3CC3)c(Cl)c2)cc1 [Compound I-1489] | 0.254
C=C(C)c1ccc(/N=c2\[nH]c(=O)n(C[C@H](C)C(=O)OC)c(=O)n2Cc2ccc(C)cc2)cc1Cl [Compound I-1491] | 0.284
C=C(C)c1ccc(/N=c2\[nH]c(=O)n(C[C@H](C)C(=O)O)c(=O)n2Cc2ccc(C)cc2)cc1Cl [Compound I-1492] | 0.461
COC(=O)[C@@H](C)Cn1c(=O)[nH]/c(=N\c2ccc(C(C)C)c(Cl)c2)n(Cc2ccc(C)cc2)c1=O [Compound I-1493] | 0.444
Cc1ccc(Cn2c(=O)n(C[C@H](C)C(=O)O)c(=O)[nH]/c2=N\c2ccc(C(C)C)c(Cl)c2)cc1 [Compound I-1494] | 0.571
Cc1ccc(Cn2c(=O)n(CC3(C(=O)O)COC3)c(=O)[nH]/c2=N\c2ccc(OC(C)C)c(Cl)c2)cc1 [Compound I-1495] | 0.026
Cc1ccc(Cn2c(=O)n(CC3(C(=O)O)COC3)c(=O)[nH]/c2=N\c2ccc(CC(C)C)c(Cl)c2)cc1 [Compound I-1496] | 0.009
COC(=O)[C@@H](C)Cn1c(=O)[nH]/c(=N\c2cc(Cl)cc(Cl)c2)n(Cc2ccc(C)cc2)c1=O [Compound I-1497] | 0.619
CCOCc1ccc(/N=c2\[nH]c(=O)n(C[C@H](C)C(=O)OC)c(=O)n2Cc2ccc(C)cc2)cc1Cl [Compound I-1498] | 0.022
CCOc1c(Cl)cc(/N=c2\[nH]c(=O)n(C[C@H](C)C(=O)OC)c(=O)n2Cc2ccc(C)cc2)cc1Cl [Compound I-1499] | 0.019
Cc1ccc(Cn2c(=O)n(C[C@H](C)C(=O)O)c(=O)[nH]/c2=N\c2cc(Cl)cc(Cl)c2)cc1 [Compound I-1500] | 0.897

Compound | IC50 [µM]
COCc1c(Cl)cc(/N=c2\[nH]c(=O)n(C[C@H](C)C(=O)O)c(=O)n2Cc2ccc(C)cc2)cc1Cl [Compound I-1501] | 0.011
CCOCc1ccc(/N=c2\[nH]c(=O)n(C[C@H](C)C(=O)O)c(=O)n2Cc2ccc(C)cc2)cc1Cl [Compound I-1502] | 0.107
CCOC(=O)CCn1c(=O)[nH]/c(=N\c2ccc3oc(CC)c(C)c3c2)n(Cc2ccc(Cl)cc2)c1=O [Compound I-1503] | 0.012
CCOC(=O)CCn1c(=O)[nH]/c(=N\c2ccc3oc(CC)c(C)c3c2)n(Cc2ccc(C)cc2)c1=O [Compound I-1504] | 0.005
CCOC(=O)CCn1c(=O)[nH]/c(=N\c2ccc3nc(CC)sc3c2)n(Cc2ccc(Cl)cc2)c1=O [Compound I-1505] | 0.004
CCOC(=O)CCn1c(=O)[nH]/c(=N\c2ccc3nc(CC)sc3c2)n(Cc2ccc(C)cc2)c1=O [Compound I-1506] | 0.002
CCc1oc2ccc(/N=c3\[nH]c(=O)n(CCC(=O)O)c(=O)n3Cc3ccc(Cl)cc3)cc2c1C [Compound I-1507] | 0.015
CCc1oc2ccc(/N=c3\[nH]c(=O)n(CCC(=O)O)c(=O)n3Cc3ccc(C)cc3)cc2c1C [Compound I-1508] | 0.018
CCc1nc2ccc(/N=c3\[nH]c(=O)n(CCC(=O)O)c(=O)n3Cc3ccc(Cl)cc3)cc2s1 [Compound I-1509] | 0.014
CCc1nc2ccc(/N=c3\[nH]c(=O)n(CCC(=O)O)c(=O)n3Cc3ccc(C)cc3)cc2s1 [Compound I-1510] | 0.013
COC(=O)[C@@H](C)Cn1c(=O)[nH]/c(=N\c2ccc(CC3CC3)c(Cl)c2)n(Cc2ccc(C)cc2)c1=O [Compound I-1511] | 0.029
Cn1cc(Oc2ccc(/N=c3\[nH]c(=O)n(CCC(=O)O)c(=O)n3Cc3ccc(Cl)cc3)cc2)ccc1=O [Compound I-1512] | 0.013
Cc1ccc(Cn2c(=O)n(C[C@H](C)C(=O)O)c(=O)[nH]/c2=N\c2ccc(CC3CC3)c(Cl)c2)cc1 [Compound I-1513] | 0.01
COC(=O)[C@@H](C)Cn1c(=O)[nH]/c(=N\c2ccc(OC3CC3)cc2)n(Cc2ccc(C)cc2)c1=O [Compound I-1514] | 0.024
COC(=O)[C@@H](C)Cn1c(=O)[nH]/c(=N\c2ccc(Oc3ccccc3)nc2)n(Cc2ccc(C)cc2)c1=O [Compound I-1515] | 0.157
Cc1ccc(Cn2c(=O)n(C[C@H](C)C(=O)O)c(=O)[nH]/c2=N\c2ccc(OC3CC3)cc2)cc1 [Compound I-1516] | 0.049
Cc1ccc(Cn2c(=O)n(C[C@H](C)C(=O)O)c(=O)[nH]/c2=N\c2ccc(Oc3ccccc3)nc2)cc1 [Compound I-1517] | 0.24
CCOC(=O)CCn1c(=O)[nH]/c(=N\c2ccc3nc(C)sc3c2)n(Cc2ccc(Cl)cc2)c1=O [Compound I-1518] | 0.002
CCOC(=O)CCn1c(=O)[nH]/c(=N\c2ccc3nc(C)sc3c2)n(Cc2ccc(C)cc2)c1=O [Compound I-1519] | 0.002
Cc1nc2ccc(/N=c3\[nH]c(=O)n(CCC(=O)O)c(=O)n3Cc3ccc(Cl)cc3)cc2s1 [Compound I-1520] | 0.032
Cc1ccc(Cn2c(=O)n(CCC(=O)O)c(=O)[nH]/c2=N\c2ccc3nc(C)sc3c2)cc1 [Compound I-1521] | 0.022

Compound | IC50 [µM]
COC(=O)[C@@H](C)Cn1c(=O)[nH]/c(=N\c2ccc(Oc3ccc(OC)nc3)cc2)n(Cc2ccc(C)cc2)c1=O [Compound I-1522] | 0.005
CCOC(=O)CCn1c(=O)[nH]/c(=N\c2ccc(Oc3ccc(OC)nc3)cc2)n(Cc2ccc(Cl)cc2)c1=O [Compound I-1523] | 0.003
COC(=O)[C@@H](C)Cn1c(=O)[nH]/c(=N\c2ccc(CC(C)(C)O)c(Cl)c2)n(Cc2ccc(C)cc2)c1=O [Compound I-1527] | 0.005
COC(=O)[C@@H](C)Cn1c(=O)[nH]/c(=N\c2ccc(CC(C)(C)F)c(Cl)c2)n(Cc2ccc(C)cc2)c1=O [Compound I-1528] | 0.032
COC(=O)[C@@H](C)Cn1c(=O)[nH]/c(=N\c2ccc(-c3noc(C)n3)cc2)n(Cc2ccc(Cl)cc2)c1=O [Compound I-1529] | 0.026
Cc1nc(-c2ccc(/N=c3\[nH]c(=O)n(C[C@H](C)C(=O)O)c(=O)n3Cc3ccc(Cl)cc3)cc2)no1 [Compound I-1530] | 0.093
Cc1ccc(Cn2c(=O)n(C[C@H](C)C(=O)O)c(=O)[nH]/c2=N\c2ccc(CC(C)(C)F)c(Cl)c2)cc1 [Compound I-1531] | 0.025
Cc1ccc(Cn2c(=O)n(C[C@H](C)C(=O)O)c(=O)[nH]/c2=N\c2ccc(CC(C)(C)O)c(Cl)c2)cc1 [Compound I-1532] | 0.025
COc1ccc(Oc2ccc(/N=c3\[nH]c(=O)n(CCC(=O)O)c(=O)n3Cc3ccc(Cl)cc3)cc2)cn1 [Compound I-1533] | 0.016
COc1ccc(Oc2ccc(/N=c3\[nH]c(=O)n(C[C@H](C)C(=O)O)c(=O)n3Cc3ccc(C)cc3)cc2)cn1 [Compound I-1534] | 0.005
O=C(O)CCn1c(=O)[nH]/c(=N\c2ccc(Oc3ccc(O)nc3)cc2)n(Cc2ccc(Cl)cc2)c1=O [Compound I-1535] | 0.028
Cc1ccc(Cn2c(=O)n(C[C@H](C)C(=O)O)c(=O)[nH]/c2=N\c2ccc(Oc3ccc(O)nc3)cc2)cc1 [Compound I-1536] | 0.024
CCOC(=O)C1(Cn2c(=O)[nH]/c(=N\c3ccc4nc(C)sc4c3)n(Cc3ccc(Cl)cc3)c2=O)CC1 [Compound I-1537] | 0.003
CCOC(=O)C1(Cn2c(=O)[nH]/c(=N\c3ccc4oc(CC)c(C)c4c3)n(Cc3ccc(Cl)cc3)c2=O)CC1 [Compound I-1538] | 0.017
CCOC(=O)C1(Cn2c(=O)[nH]/c(=N\c3ccc4nc(CC)sc4c3)n(Cc3ccc(Cl)cc3)c2=O)CC1 [Compound I-1539] | 0.004
CC(C)Cc1ccc(/N=c2\[nH]c(=O)n(C[C@H](C)C(=O)O)c(=O)n2Cc2ccc(Cl)cn2)cc1Cl [Compound I-1540] | 0.052
Cc1nc2ccc(/N=c3\[nH]c(=O)n(CC4COC(C)(C)OC4)c(=O)n3Cc3ccc(Cl)cc3)cc2s1 [Compound I-1542] | 0.004
CNC(=O)CCn1c(=O)[nH]/c(=N\c2ccc3nc(C)sc3c2)n(Cc2ccc(Cl)cc2)c1=O [Compound I-1543] | 0.006
Cc1nc2ccc(/N=c3\[nH]c(=O)n(CC(CO)CO)c(=O)n3Cc3ccc(Cl)cc3)cc2s1 [Compound I-1544] | 0.004
CCOC(=O)C1(Cn2c(=O)[nH]/c(=N\c3ccc4nc(C)sc4c3)n(Cc3ccc(C)cc3)c2=O)CC1 [Compound I-1545] | 0.003
